Literature values in patent US20150224078A1, “Methods for the Treatment of Lung Diseases with Mast Cell Stabilizers” (Patara Pharma, LLC, priority 2014, published 2015).

Details: Richards et al, 1987

SMILES: O=C(O)c1cc(=O)c2c(OCC(O)COc3cccc4oc(C(=O)O)cc(=O)c34)cccc2o1 [cromolyn sodium]
- oral bioavailability: about 1%
